Structures can show the parent of a compound that is named as a salt.
Assay: Solid-form stability of the polymorph (heat treatment / storage observation)
Type: physicochemical
Conditions: at room temperature and at elevated temperatures; solid form obtained by heating at 200° C. for 3-4 hours in a drying oven
Description: This polymorph was obtained by a heat treatment of either the above-described polymorph mixture or of oxymorphone hydrochloride monohydrate at 200° C. for a period of 3-4 hours in a drying oven.

With `CN1CC[C@]23c4c5ccc(O)c4O[C@H]2C(=O)CC[C@@]3(O)[C@H]1C5` [second polymorph, crystalline, anhydrous hydrochloride salt of 4,5α-epoxy-3,14-dihydroxy-17-methylmorphinan-6-one] the polymorphic form stability was “stable at room temperature and at elevated temperatures”.
